Measurements taken from US9034863B2, “Compositions and methods for inhibiting entry of a hepatic virus” (The Board of Trustees of the University of Illinois, priority 2008, dated 2015).

Experiments:
Type in all cases: cell-based, Hepatitis C virus (HCV)
HCVcc = assay: HCV foci reduction assay, acute HCVcc infection of Huh7 cells; conditions: added pre-, co- or post-infection
[1] = tested on: HCV genotype 1b subgenomic replicon; assay: HCV sg1b replicon RNA replication in Huh7 cells, RT-qPCR; conditions: 72 hours post-treatment
[2] = tested on: HCV genotype 2a subgenomic replicon; assay: HCV sg2a replicon RNA replication in Huh7 cells, RT-qPCR; conditions: 72 hours post-treatment
From the text: Huh7 cells, also known as Huh7/scr cells, are well-known in the art (Zhong, et al. (2005) Proc. Natl. Acad. Sci. USA 102, 9294-99; Gastaminza, et al. (2006) J. Virol. 80:11074-81; Zhong, et al. (2006) J. Virol. 80:11082-93; Sainz et al. (2009) PLoS ONE 4:e6561). […] The HCV sg2a replicon was established as previously described (Uprichard, et al. (2006) Virol. J. 3:89). Briefly the HCV genotype 2a subgenomic replicon RNA (psgJFH1; Kato, et al. (2003) Gastroenterology 125:1808-17) was XbaI linearized, in vitro transcribed using […] T7 (Ambion, Austin, Tex.) and transfected into cells using a modified electroporation protocol (Krieger, et al. (2001) J. Virol. 75(10):4614-24). All cells were cultured in complete Dulbecco's modified Eagle's medium (cDMEM) (Hyclone, Logan, Utah) supplemented with 10% fetal bovine serum (FBS) (Hyclone), 100 units/ml penicillin, […] streptomycin, and 2 mM L-glutamine (Gibco Invitrogen, Carlsbad, Calif.) and 500 μg/ml geneticin ((Invitrogen) for HCV replicon cells only).
(§1) Total cellular RNA was purified using an ABI PRISM™ 6100 Nucleic Acid PrepStation (Applied Biosystems), as per the manufacturer's instructions. […] HCV JFH-1 and human GAPDH RNA transcript levels were determined relative to a standard curve derived from serial dilutions of plasmid containing the JFH-1 HCV cDNA or the human GAPDH coding sequence, respectively. […]

HCV-JFH-1 = assay: Chronic HCV-JFH-1 infection of Huh7-1 cells, inhibitor combinations, RT-qPCR 24-96 h (FIG. 3-5); conditions: for reduction of HCV levels (FIG. 3): PI 200 nM; for reduction of HCV levels (FIG. 3) / decrease in intracellular HCV load (FIG. 4B): IFN-α 100 U/ml; for decrease in intracellular HCV load (FIG. 4B): ferristatin 50 μM
Description: RT-qPCR analysis of intracellular HCV RNA levels in Huh7 cultures mock-treated, treated with ezetimibe (30 μM), PI (200 nM), IFN-α (100 U/ml), or indicated combinations thereof (n=3). Data presented are representative of multiple independent experiments.
FIG. 4A, Chronically infected Huh7-1 cell cultures (n=3) treated with ezetimibe (E), naringenin (N), interferon α (I), or combinations thereof, were harvested at 24, 48, 72 or 96 hours post-treatment, intracellular HCV levels were quantified by RT-qPCR, and are presented as HCV copies/μg RNA. FIG. 4B, Chronically infected Huh7-1 cell cultures (n=3) treated with ezetimibe (E), ferristatin (T), interferon α (I), or combinations thereof, were harvested at 24, 48, 72 or 96 hours post-treatment, intracellular HCV levels were quantified by RT-qPCR, and are presented as HCV copies/μg RNA.
Shown are the results of RT-qPCR analysis of intracellular HCV RNA levels in Huh7 cultures mock-treated, treated with ezetimibe (30 μM), polymerase inhibitor, RG7128 (1 μM), or a combination thereof (n=3).
For experiments analyzing the activity of ezetimibe in combination with a protease inhibitor, Huh7-1 cells were infected with HCV-JFH-1 and allowed to reach steady state levels of infection. The HCV-infected cells were seeded in a 96-well plate and treated with the following: medium alone, 30 μM ezetimibe, 200 nM ITMN5537, 100 μ/ml IFN-α, and combinations of the above drugs at the specified concentrations. Medium and drugs were replaced every 24 hours. Triplicate wells were harvested at 24, 48, 72 or 96 hours post-treatment, in 200 μl/well of 1×ABI lysis buffer and stored at −80° C. until RNA extraction.
Therefore, the therapeutic potential of an IFN-free antiviral cocktail was also investigated, using ezetimibe in combination with other direct acting inhibitors of HCV amplification, specifically an inhibitor of the HCV NS3/4A protease (ITMN 5537; Intermune, Brisbane, Calif.). Huh7-1 cells were infected with HCV-JFH-1 and allowed to reach steady state levels of infection. Cells were monotreated with protease inhibitor (PI) or ezetimibe or IFN alone or treated with combinations of PI+ezetimibe or PI+IFN or IFN+ezetimibe or a combination of all three inhibitors. Samples were harvested at 24, 48, 72 or 96 hours post-treatment, the intracellular RNA was extracted and RT-qPCR performed to quantify HCV copies.
Thus, parallel cultures of chronically infected Huh7-1 cells were established and subsequently treated with ezetimibe, naringenin or IFN-α, either alone or in combination. Treatments were replenished every 24 hours. Triplicate cultures of each treatment condition were harvested at 24, 48, 72 or 96 hours post-treatment and intracellular HCV levels were quantified by RT-qPCR (FIG. 4A). […] Thus, no evidence of synergy was observed when IFN-α was combined with an egress inhibitor that only blocks cell-free spread.
As an alternative method of determining the therapeutic importance of inhibiting HCV cell-to-cell spread, an inhibitor to TfR1 was used. TfR1 has also been identified as another host cell factor that is involved in cell-free entry of HCV into cells, but is not required for cell-to-cell-mediated HCV entry. Thus, unlike ezetimibe which inhibits both cell-free and cell-to-cell HCV spread, the TfR1 inhibitor, ferristatin, only blocks cell-free virus spread. Again, chronically infected Huh7-1 cell cultures were established and treated with ezetimibe (30 μM), ferristatin (50 μM), or IFN-α (100 U/ml), either alone or in combination and treatments were replenished every 24 hours. Intracellular HCV copies were quantified from triplicate cultures by RT-qPCR at 24, 48, 72 or 96 hours post-treatment (FIG. 4B).
Huh7-1 cells were infected with HCV-JFH-1 and allowed to reach steady state levels of infection. Cells were monotreated with HCV polymerase inhibitor RG7128 (1 μM) or ezetimibe (30 μM) alone or treated with a combination of RG7128 and ezetimibe. […]

HCVcc JFH-1 = assay: Chronic HCVcc infection in growing Huh7 cells, long-term treatment, RT-qPCR (FIG. 2)
Description: Cultures of growing Huh7 cells were inoculated with HCVcc JFH-1 at an MOT of 0.01 FFU/cell. Infected cultures were maintained for an additional 10 days to allow HCV RNA to reach steady-state levels. FIG. 2A, Cultures were mock treated, treated with ezetimibe alone (30 μM), IFN-α (100 U/ml) alone, or ezetimibe (30 μM) plus IFN-α (100 U/ml) in combination. Treatments were maintained as cultures were passaged. FIG. 2B, After 70 days IFN-α or combination ezetimibe plus IFN-α treatment, treatment was either continued (open shapes) or discontinued (filled shapes). […] Results are graphed as means±s.e.m. for triplicate samples. The data presented are representative of two independent experiments.
For experiments in growing cells, Huh7 cells seeded at 1×10^6 cells in a T75 cell culture flask (Corning) were infected with JFH-1 HCVcc at a MOI of 0.01 FFU/cell and subsequently cultured for 10 days to allow HCV RNA to reach steady-state levels. On day 10 post-infection, cells were split 1:4 and re-plated into T25 culture flasks (Corning). Twenty four hours post seeding, individual flasks were mock-treated with cDMEM or treated with cDMEM containing IFN-α (100 U/ml), ezetimibe (30 μM) or a combination of both IFN-α (100 U/ml) and ezetimibe (30 μM). Throughout the course of the experiment, fresh media with treatments was replenished every two days and cells were trypsinized just before reaching confluence and re-plated at a dilution of 1:3 to maintain active cell growth. […]
as §1
To confirm HCV clearance, drug treatments were subsequently discontinued on day 70 and HCV RNA levels were monitored for an additional 30 days.

CC[C@H](C)C(=O)O[C@H]1C[C@@H](C)C=C2C=C[C@H](C)[C@H](CC[C@@H]3C[C@@H](O)CC(=O)O3)[C@H]21 [Lovastatin]
inhibition of HCVcc foci formation (HCVcc): had no affect | reduction of sg1b RNA levels [1]: 22 fold | sg2a HCV RNA levels [2]: had no affect

CC(C)(C)OC(=O)N[C@H]1CCCCC/C=C\[C@@H]2C[C@@]2(C(=O)NS(=O)(=O)C2(C)CC2)NC(=O)[C@@H]2C[C@@H](OC(=O)N3Cc4cccc(F)c4C3)CN2C1=O [PI]
reduction of HCV levels (FIG. 3) (HCV-JFH-1; ezetimibe 30 μM): less than a log

CC(C)C(=O)OC[C@H]1O[C@@H](n2ccc(N)nc2=O)[C@](C)(F)[C@@H]1OC(=O)C(C)C [RG7128]
reduction of HCV levels (FIG. 5) (HCV-JFH-1; RG7128 1 μM, ezetimibe 30 μM, normalized to Mock): less than a log

Cc1[n-]n(-c2ccc(S(=O)(=O)O)cc2)c(=O)c1N=Nc1ccc(-c2ccc(N=Nc3ccc4c(S(=O)(=O)O)cc(S(=O)(=O)O)c(N)c4c3[O-])c([O-])c2)cc1[O-].[Cu+2].[Cu+2] [ferristatin]
decrease in intracellular HCV load (FIG. 4B) (HCV-JFH-1; ezetimibe 30 μM): neither ezetimibe nor ferristatin alone reduced intracellular HCV load

IFN-α
decrease in intracellular HCV RNA levels (HCVcc JFH-1; by day 32 post-treatment vs mock, IFN-α 100 U/ml, ezetimibe 30 μM): ~2 logs | rebound in HCV RNA after treatment discontinued (HCVcc JFH-1; discontinued on day 70, monitored 30 days): immediate rebound | reduction of HCV levels (FIG. 3) (HCV-JFH-1; ezetimibe 30 μM): a log | decrease in intracellular HCV load (FIG. 4B) (HCV-JFH-1; ezetimibe 30 μM): a log decrease | reduction of HCV copies (FIG. 4A) (HCV-JFH-1; ezetimibe, naringenin, IFN-α alone or in combination): a log decrease
